Laboratory results: US20050159333A1, “Methods of modulating smooth muscle contractility” (priority 2002, published 2005)
“And” between values parts separate entries of the source, which are not always exact repeats. Equal entries are not always repeated. Structures can show the parent of a compound that is named as a salt. Where two headings read alike, the source gives them in different places.

Legend:
[1] = tested on: isolated male rat urinary bladder; experiment: contractile responses of isolated male rat urinary bladder to the PKC activator phorbol ester; format: cell-based
[2] = tested on: isolated rabbit urinary bladder smooth muscle; details: Jezior et al. 2001, cited from earlier work
[3] = target: protein kinase C-related protein kinase 2 (PRK2) (Homo sapiens, UniProt Q16513); details: Davies et al. 2000; cited from earlier work
[4] = tested on: isolated male rat urinary bladder; experiment: α,β-methylene ATP-evoked contractions of isolated male rat urinary bladder strips (organ bath); format: cell-based; details: for attenuation of α,β-methylene ATP-evoked bladder contractions: 10 μM inhibitor, 45 min, 10 μM α,β-methylene ATP
[5] = tested on: isolated male rat urinary bladder; experiment: baseline bladder tension of isolated male rat urinary bladder strips; format: cell-based; details: for decrease in baseline bladder tension from baseline / relaxation (decrease in baseline bladder tension): 10 μM, 45 min incubation; for effect on baseline bladder tension / bladder tone: absence of agonist-evoked contractile responses
[6] = target: PKC from rat brain; details: cited from earlier work
[7] = target: PKC, human form (Homo sapiens, UniProt P17252); details: 20 μM HA-1077; Davies et al. 2000; cited from earlier work
[8] = tested on: isolated rabbit aorta; details: Seto et al. 1991; cited from earlier work
[9] = tested on: isolated male rat urinary bladder; experiment: KCl-evoked contractions of isolated male rat urinary bladder strips (organ bath); format: cell-based
[10] = tested on: isolated male rat urinary bladder; experiment: NKA-evoked contractions of isolated male rat urinary bladder strips (organ bath); format: cell-based
[11] = tested on: isolated male rat urinary bladder; experiment: electrically-evoked contractions of isolated male rat urinary bladder strips (organ bath); format: cell-based
[12] = tested on: isolated male rat urinary bladder; experiment: carbachol-evoked contractions of isolated male rat urinary bladder strips (organ bath); format: cell-based
[13] = target: PRK1 (protein kinase N) (Homo sapiens, UniProt Q16512); details: cited from earlier work
[14] = target: ROCK II; details: Ishizaki et al. 2000; cited from earlier work
[15] = tested on: other serine/threonine protein kinases; details: Davies et al. 2000; cited from earlier work
[16] = tested on: isolated rabbit pulmonary artery; details: Fu et al. 1998; cited from earlier work
[17] = Y-27632 10 μM, unpublished observations
[18] = vehicle experiments, at 3×10^−7 M NKA
[19] = all frequencies (2, 4, 8, 16 Hz), Y-27632 10 μM, atropine 1 μM, α,β-methylene ATP 10 μM
[20] = Rattus norvegicus, read-out: antagonist affinity (pKb) (converted)

Chain of protein kinase C-related protein kinase 2 (PRK2) (Q16513 whole entry, species assumed): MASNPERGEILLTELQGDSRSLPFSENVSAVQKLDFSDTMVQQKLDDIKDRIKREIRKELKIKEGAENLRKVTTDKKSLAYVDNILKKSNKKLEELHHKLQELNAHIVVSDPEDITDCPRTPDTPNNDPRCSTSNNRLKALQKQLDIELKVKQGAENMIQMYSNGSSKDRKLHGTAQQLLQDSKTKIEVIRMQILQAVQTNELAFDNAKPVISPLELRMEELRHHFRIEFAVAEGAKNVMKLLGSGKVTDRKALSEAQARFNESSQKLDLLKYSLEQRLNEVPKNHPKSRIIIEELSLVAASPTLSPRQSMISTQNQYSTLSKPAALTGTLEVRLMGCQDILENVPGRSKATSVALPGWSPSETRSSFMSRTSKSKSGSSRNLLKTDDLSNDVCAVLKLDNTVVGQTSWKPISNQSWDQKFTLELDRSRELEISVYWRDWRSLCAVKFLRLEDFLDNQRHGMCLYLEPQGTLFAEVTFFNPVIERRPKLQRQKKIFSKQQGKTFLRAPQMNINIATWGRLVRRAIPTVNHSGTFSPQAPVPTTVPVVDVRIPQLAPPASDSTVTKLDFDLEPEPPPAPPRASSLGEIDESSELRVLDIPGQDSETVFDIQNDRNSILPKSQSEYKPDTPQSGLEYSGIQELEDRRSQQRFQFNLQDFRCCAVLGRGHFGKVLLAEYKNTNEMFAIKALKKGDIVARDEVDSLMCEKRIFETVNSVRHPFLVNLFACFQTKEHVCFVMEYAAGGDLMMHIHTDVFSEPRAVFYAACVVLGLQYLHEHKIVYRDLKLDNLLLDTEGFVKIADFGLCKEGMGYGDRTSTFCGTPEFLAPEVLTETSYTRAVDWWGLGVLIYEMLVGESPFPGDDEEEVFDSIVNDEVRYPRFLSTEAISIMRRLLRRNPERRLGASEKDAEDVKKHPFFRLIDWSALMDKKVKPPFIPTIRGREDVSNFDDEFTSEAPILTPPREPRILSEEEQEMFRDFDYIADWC
Chain of PRK1 (protein kinase N) (Q16512 whole entry, species assumed): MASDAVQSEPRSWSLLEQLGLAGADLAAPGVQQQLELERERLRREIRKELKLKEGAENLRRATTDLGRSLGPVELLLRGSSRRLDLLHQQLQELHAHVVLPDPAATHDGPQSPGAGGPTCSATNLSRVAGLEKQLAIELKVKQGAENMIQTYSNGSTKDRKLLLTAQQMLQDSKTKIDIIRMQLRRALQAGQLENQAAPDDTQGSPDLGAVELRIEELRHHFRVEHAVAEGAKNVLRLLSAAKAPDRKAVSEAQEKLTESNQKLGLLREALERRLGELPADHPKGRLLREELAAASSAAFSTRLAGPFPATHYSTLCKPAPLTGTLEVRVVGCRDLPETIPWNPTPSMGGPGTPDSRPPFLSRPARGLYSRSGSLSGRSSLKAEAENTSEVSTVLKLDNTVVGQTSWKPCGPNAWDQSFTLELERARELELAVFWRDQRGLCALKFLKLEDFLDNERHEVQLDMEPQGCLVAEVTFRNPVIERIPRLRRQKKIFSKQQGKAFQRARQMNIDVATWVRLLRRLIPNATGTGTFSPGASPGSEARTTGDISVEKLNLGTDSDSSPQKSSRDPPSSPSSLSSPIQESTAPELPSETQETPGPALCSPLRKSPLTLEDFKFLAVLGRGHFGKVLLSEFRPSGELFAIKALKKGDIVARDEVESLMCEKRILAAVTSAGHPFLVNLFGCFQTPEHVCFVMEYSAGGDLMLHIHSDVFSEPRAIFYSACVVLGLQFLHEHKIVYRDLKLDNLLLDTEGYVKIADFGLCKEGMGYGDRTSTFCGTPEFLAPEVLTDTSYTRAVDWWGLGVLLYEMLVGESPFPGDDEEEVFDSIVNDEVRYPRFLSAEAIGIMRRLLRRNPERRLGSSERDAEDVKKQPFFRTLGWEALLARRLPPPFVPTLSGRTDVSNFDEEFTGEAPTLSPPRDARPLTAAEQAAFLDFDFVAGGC

For `CN(C)CCCn1cc(C2=C(c3c[nH]c4ccccc34)C(=O)NC2=O)c2ccccc21` [GF109203X], the “effect on contractile responses to the PKC activator phorbol ester” value (from here on “effect on contractile responses”) [1] was “inhibited”.
For `O=S(=O)(c1cccc2cnccc12)N1CCCNCC1` [HA-1077, fasudil], the “effect on bethanechol-evoked contractions” value [2] is given as “attenuate”, the “effect on PRK2” value [3] is given as “inhibited” and the “effect on contractile responses” value [1, 17] is given as “no inhibitory effects”. For the same compound, the “attenuation of α,β-methylene ATP-evoked bladder contractions” value [4] was 22.1±5.7% and 22±6%, the “decrease in baseline bladder tension from baseline” value [5] was 36.1±1.6% and the “relaxation (decrease in baseline bladder tension)” value [5] was 0.30 ± 0.01 g. For the same compound, the “effect on baseline bladder tension / bladder tone” value [5] was “decreased bladder tone”, the Ki [6] was 9.3 µM and the “inhibitory effect on the human form of PKC” value [7] was “no significant inhibitory effects”. For the same compound, the “effect on PG-evoked contractions” value [8] was “inhibits”.
For `[Cl-].[K+]` [KCl, potassium chloride], the “maximal response to KCl” value [9] was 8.7 ± 0.5 g and the EC50 ([9]; read-out: KCl EC50 in the absence of antagonist) was 31000 ± 4300 µM.
With `CSCC[C@H](NC(=O)[C@H](CC(C)C)NC(=O)CNC(=O)[C@@H](NC(=O)[C@H](Cc1ccccc1)NC(=O)[C@H](CO)NC(=O)[C@H](CC(=O)O)NC(=O)[C@@H](NC(=O)[C@H](CCCCN)NC(=O)[C@@H](N)Cc1c[nH]cn1)[C@@H](C)O)C(C)C)C(N)=O` [NKA, Neurokinin A] the EC50 ([10]; read-out: NKA EC50 in the presence of Y-27632, 10 μM Y-27632) was 0.0324 µM, the “maximal response to NKA” value [10, 18] was 4.2 ± 0.4 g and the “maximal response to NKA as % of the response to 100 mM KCl” value [10, 18] was 136.2±24.8%.
For `NC1=N[C@H](O)[C@H]2[C@H]3O[C@]4(O)O[C@@H]([C@@H](O)[C@@]2(N1)[C@@H]4O)[C@]3(O)CO` [TTX, tetrodotoxin], the “effect on frequency-response curves to electrical stimulation” value [11] was “abolished”.
For `C[C@@H](N)[C@H]1CC[C@H](C(=O)Nc2ccncc2)CC1` [Y-27632, (+)-(R)-trans-4-(1-amino-ethyl)-N-(4-pyridyl) cyclohexanecarboxamide dihydrochloride monohydrate], the “effect on bethanechol-evoked contractions” value ([2]; dihydrochloride monohydrate) is listed as “attenuates”, the “effect on AUC of electrically-evoked bladder contractions” value [11, 19] is listed as “significantly attenuated” and the “effect on amplitude of electrically-evoked bladder contractions” value [11, 19] is listed as “significantly attenuated”. For the same compound, the “inhibition of carbachol-evoked contractions” value ([12]; 10 μM Y-27632, 45 min pretreatment, at 3×10^−6 M carbachol, dihydrochloride monohydrate) was 58±11%, the “effect on carbachol-evoked contractions” value ([12]; 10 μM Y-27632, 10^−5-10^−4 carbachol) was “this inhibition was not significant” and the “effect on carbachol-evoked contractions” value ([12]; 10 μM Y-27632, 10^−9-3×10^−6 M carbachol) was “significantly attenuated”. For the same compound, the inhibition at 10 µM ([12]; Rattus norvegicus, 10 μM Y-27632, 45 min pretreatment, at 3×10^−6 M carbachol) was 58.1 ± 10.5%, the Kb [12, 20] was 2.14 µM and the “degree of attenuation of G protein-coupled receptor contractile responses (carbachol and NKA)” value ([12]; Y-27632 10 μM, carbachol and NKA responses together) was “approximately 50%”. For the same compound, the “effect on carbachol-evoked contractions” value ([12]; pretreatment with 1 and 3 μM Y-27632) was “no effect”, the “effect on PRK2” value [3] was “inhibited” and the Ki [13] was 3.1 µM. The Ki [14] was 0.3 µM, the “effect on a large number of other serine/threonine protein kinases” value [15] was “minimal effect” and the “effect on contractile responses” value [1, 17] was “no effect”. For the same compound, the “attenuation of α,β-methylene ATP-evoked bladder contractions” value ([4]; dihydrochloride monohydrate) was 30.0±7.2% and 30±7% and ~30%, the “decrease in baseline bladder tension from baseline” value [5] was 47.0±2.5% and the “relaxation (decrease in baseline bladder tension)” value [5] was 0.40 ± 0.05 g. The “effect on baseline bladder tension / bladder tone” value [5] was “decreased bladder tone”, the “effect on NKA-induced contractions” value ([10]; 10 μM Y-27632, all concentrations of agonist) was “significantly attenuated” and the “attenuation of NKA-evoked bladder contractions” value ([10]; 10 μM Y-27632, at 10^−6 M) was 69±13%. The Kb [10, 20] was 2.51 µM, the inhibition at 10 µM ([10]; Rattus norvegicus, read-out: inhibition of NKA-induced contractions) was 68.6 ± 12.7% and the “effect on contractile response to KCl” value ([9]; 10 μM Y-27632, KCl 10-100 mM, dihydrochloride monohydrate) was “no measureable effect”. The “effect on AA-evoked contractile responses” value [16] was “attenuated”.
`C[N+](C)(C)CCOC(N)=O.[Cl-]` [carbachol, carbamylcholine chloride] gave an EC50 ([12]; Rattus norvegicus, read-out: carbachol EC50 in the presence of Y-27632) of 1.03 ± 0.336 µM, an Emax at 10 µM ([12]; Rattus norvegicus, vehicle experiments, at 10^−5 M carbachol, read-out: maximal response to carbachol as % of the response to 100 mM KCl) of 105 ± 28.2% and an EC50 ([12]; Rattus norvegicus, vehicle experiments, read-out: carbachol EC50 in the absence of antagonist) of 0.183 ± 0.0689 µM. The “maximal response to carbachol” value ([12]; vehicle experiments, at 10^−5 M carbachol) was 5.3 ± 0.9 g.
With `Nc1ncnc2c1ncn2[C@@H]1O[C@H](COP(=O)(O)CP(=O)(O)OP(=O)(O)O)[C@@H](O)[C@H]1O` [α,β-methylene ATP] the “mean amplitude of contractile responses evoked by α,β-methylene ATP” value [4] was 3.9 ± 0.5 g.
